# Results published in article PMC7832401, “Antimycobacterial, Cytotoxic, and Antioxidant Activities of Abietane Diterpenoids Isolated from Plectranthus madagascariensis” (Plants, 2021).
# Where “and” joins values, the source holds several entries; their conditions need not be identical. Equal values may be shown once. Read-outs that look alike come from different tables or passages of the source.
# Key:
# [1] = ORAC (Oxygen Radical Absorbance Capacity) assay; conditions: for ORAC: μM Trolox equivalents per gram, mean ± SD
# Description: The ORAC assay was conducted according to Prior et al.’s method, which is a modified version of the original ORAC assay developed by Cao and Prior [26]. In this assay, 2,2′-azobis(2-amidinopropane) dihydrochloride (AAPH) underwent thermal decomposition to generate peroxyl radicals, resulting in a reduction in fluorescence from fluorescein. The antioxidant potential of the isolated compounds was measured by their ability to prevent any loss in fluorescence from fluorescein by neutralizing peroxyl radicals and assessing the sample’s fluorescence area under the curve (AUC). The fluoroskan spectrum plate reader was programmed to record fluorescein’s fluorescence every 2 min after the addition of AAPH with the excitation wavelength at 485 nm and the emission wavelength at 530 nm. The Trolox (TE) stock solution was used as standard with concentration varying between 0 and 417 μM. The ORAC values were calculated using a regression equation (y = mx + c) between Trolox concentration (y in μM) and the net area under the fluorescence decay curve (x). ORAC values were expressed as μM Trolox equivalents (TE) per gram of test samples (μM TE/g). The antioxidant epigallocatechin gallate (EGCG) was used as a positive control.
# [2] = system: Mtb H37Rv pMSp12::GFP bioreporter strain; assay: microbe, parasite or virus in culture; type: cell-based, Mycobacterium tuberculosis; conditions: for MIC90: Mycobacterium tuberculosis, H37RV; for ADC MIC increase: may be due to serum binding
# [3] = FRAP (Ferric Ion Reducing Antioxidant Power) assay; conditions: for FRAP: μM ascorbic acid equivalents per gram, mean ± SD
# Description: The FRAP assay was conducted according to Benzie and Strain’s method, which consists of finding the compounds’ antioxidant potential in terms of μM ascorbic acid equivalents per gram dry weight (μM AAE/g). L-Ascorbic acid was used as a standard in the FRAP assay with concentrations varying between 0 and 1000 μM. The antioxidant potential of the tested samples was read at a wavelength of 593 nm in a Multiskan (Thermo Fisher Scientific, Waltham, MA, USA) spectrum plate reader.
# [4] = TEAC (Trolox Equivalent Absorbance Capacity) assay; conditions: for TEAC: μM Trolox equivalents per gram, mean ± SD
# Description: The TEAC assay was done according to the method developed by Pellegrini et al., which consists of determining the activities of the isolated compounds in terms of μM Trolox equivalents per gram dry weight (μM TE/g) of the test samples. Trolox was used as the standard with concentrations ranging from 0–500 μM. The absorbance was recorded by a Multiskan spectrometer plate reader at wavelength 734 nm. The antioxidant epigallocatechin gallate (EGCG) was used as a positive control.
# [5] = In vitro cytotoxicity MTT assay; conditions: human
# [6] = system: HaCaT cells; assay: In vitro cytotoxicity MTT assay; conditions: HaCaT cells
# [7] = in vitro; conditions: human
# [8] = 168 h, […], 7 days, 90% inhibition, read-out: MIC90, 7H9/ADC/Glu/Tw, 7 Days
# [9] = 168 h, […], 7 days, 90% inhibition, read-out: MIC90, 7H9/CAS/ Glu/Tx, 7 Days
# [10] = 168 h, […], 7 days, value in brackets, read-out: MIC90, 7H9/CAS/ Glu/Tx, 7 Days
# [11] = 168 h, supplement, […], day 7, read-out: GFP Assay - 10pt DR: MIC90 [Media: 7H9 ADC GLU Tw, Day:7]
# [12] = 168 h, supplement, […], day 7, read-out: GFP Assay - 10pt DR: MIC90 [Media: 7H9 CAS GLU Tx, Day:7]
# [13] = 336 h, […], 14 days, 90% inhibition, read-out: MIC90, 7H9/ADC/Glu/Tw, 14 Days
# [14] = 336 h, […], 14 days, 90% inhibition, read-out: MIC90, 7H9/CAS/ Glu/Tx, 14 Days
# [15] = 336 h, […], 14 days, value in brackets, read-out: MIC90, 7H9/CAS/ Glu/Tx, 14 Days
# [16] = 336 h, supplement, […], day 14, read-out: GFP Assay - 10pt DR: MIC90 [Media: 7H9 ADC GLU Tw, Day:14]
# [17] = 336 h, supplement, […], day 14, read-out: GFP Assay - 10pt DR: MIC90 [Media: 7H9 CAS GLU Tx, Day:14]
# [18] = span over compounds, medium and day not stated (abstract), read-out: MIC90 against Mycobacterium tuberculosis H37Rv
# [19] = 168 h, […], 7 days, value in brackets, read-out: MIC90, 7H9/ADC/Glu/Tw, 7 Days
# [20] = 336 h, […], 14 days, value in brackets, read-out: MIC90, 7H9/ADC/Glu/Tw, 14 Days
Compound,antioxidant activity in ORAC assay (in words) [1],ORAC [1],"MIC90 [2, 8]","MIC90 [2, 9]","MIC90 [2, 10]","MIC90 [2, 11]","MIC90 [2, 12]","MIC90 [2, 13]","MIC90 [2, 14]","MIC90 [2, 15]","MIC90 [2, 16]","MIC90 [2, 17]","MIC90 [2, 18]",antioxidant activity in FRAP assay (in words) [3],FRAP [3],antioxidant activity in TEAC assay (in words) [4],TEAC [4],IC50 at 24 h [5],also measured
"CC(C)C1=C(O)C(=O)C2=C(C1=O)[C@H](O)[C@@H](O)C1C(C)(C)CCC[C@]21C (stereo partly drawn) [Compound 1, 6β,7α-dihydroxyroyleanone]",good antioxidant activities,"23,625.0 ± 1.64 µM TE/g",> 125 mg/L,62.5 mg/L,180 µM,> 125 mg/L,62.5 mg/L,> 125 mg/L,60.6 mg/L,174 µM,> 125 mg/L,60.6 mg/L,5.61 to 180 µM,very little activity,541.5 ± 1.59 µM AAE/g,good antioxidant activities,5080.8 ± 0.04 µM TE/g,60.2 µg/mL and 173 µM,
"CC(=O)OC1C2=C(C(=O)C(O)=C(C(C)C)C2=O)C2(C)CCCC(C)(C)C2C1O (stereo not drawn) [Compound 2, 7α-acetoxy-6β-hydroxyroyleanone]",good activity,"21,404.1 ± 4.35 µM TE/g",14.4 mg/L,15.2 mg/L,39 µM,15 mg/L,15.2 mg/L,14.6 mg/L,15.6 mg/L,40.1 µM,33.6 mg/L,15.6 mg/L,5.61 to 180 µM,weak antioxidant activities,345.5 ± 0.77 µM AAE/g,weak antioxidant activities,3700.8 ± 1.50 µM TE/g,42.7 µg/mL and 109 µM,"antimycobacterial activity (in words) [2]: moderate activities; MIC90 [2, 19]: 36.8 µM; MIC90 [2, 20]: 37.5 µM"
"CC(C)C1=C(O)C(=O)C2=C(C1=O)[C@H](O)C[C@H]1C(C)(C)CCC[C@]21C [Compound 3, horminone]",,"12,443.3 ± 3.61 µM TE/g",> 125 mg/L,14.3 mg/L,43.2 µM,> 125 mg/L,14.3 mg/L,> 125 mg/L,3.96 mg/L,11.9 µM,> 125 mg/L,3.96 mg/L,5.61 to 180 µM,,296.5 ± 6.72 µM AAE/g,,Inactive,53.7 µg/mL and 162 µM,ADC MIC increase ([2]; […]): ADC MIC is increased > 4 fold which may be due to serum binding
"CC(C)C1=C(O)C(=O)C2=C(C(=O)C(O)=C3C(C)(C)CCC[C@]23C)C1=O [Compound 4, coleon U quinone]",good activity,"21,857.8 ± 5.85 µM TE/g",> 125 mg/L,15.6 mg/L,45.4 µM,> 125 mg/L,15.6 mg/L,> 125 mg/L,1.93 mg/L,5.61 µM,> 125 mg/L,1.94 mg/L,5.61 to 180 µM,weak antioxidant activities,2109.6 ± 2.78 µM AAE/g,weak antioxidant activities,225.5 ± 1.47 µM TE/g,33.9 µg/mL and 98.5 µM,ADC MIC increase ([2]; […]): ADC MIC is increased > 4 fold which may be due to serum binding; cytotoxic activity against HaCaT cells (in words) [6]: good cytotoxic activities
"CC(C)c1cc2c(c(O)c1O)[C@@]13CCCC(C)(C)[C@@H]1[C@](O)(OC3)C2=O [Compound 5, carnosolon]",,"29,287.4 ± 4.75 µM TE/g",> 125 mg/L,> 125 mg/L,,> 125 mg/L,> 125 mg/L,> 125 mg/L,> 125 mg/L,,> 125 mg/L,> 125 mg/L,,,"13,772.2 ± 2.76 µM AAE/g",,4876.3 ± 0.49 µM TE/g,27.5 µg/mL and 79.8 µM,"MIC90 ([2]; in both media, read-out: MIC90 against Mtb H37Rv): > 125 mg/L; cytotoxic activity against HaCaT cells (in words) [6]: good cytotoxic activities"
"O=C(O[C@@H]1Cc2c(O)cc(O)cc2O[C@@H]1c1cc(O)c(O)c(O)c1)c1cc(O)c(O)c(O)c1 [EGCG, epigallocatechin gallate, reference compound]",,"14,970.0 ± 5.53 µM TE/g",,,,,,,,,,,,,"10,455.1 ± 0.81 µM AAE/g",,4722.5 ± 2.22 µM TE/g,,
"CO[C@H]1/C=C/O[C@@]2(C)Oc3c(C)c(O)c4c(O)c(c(/C=N/N5CCN(C)CC5)c(O)c4c3C2=O)NC(=O)/C(C)=C\C=C\[C@H](C)[C@H](O)[C@@H](C)[C@@H](O)[C@@H](C)[C@H](OC(C)=O)[C@@H]1C [Rifampicin, reference compound]",,,0.001 mg/L,0.015 mg/L,0.02 µM,0.001 mg/L,0.013 mg/L,0.002 mg/L,0.035 mg/L,0.04 µM,0.0011 mg/L,0.018 mg/L,,,,,,,"MIC90 [2, 19]: 0.001 µM; MIC90 [2, 20]: 0.002 µM; GFP Assay - 10pt DR: MIC90 [Media: 7H9 ADC GLU Tw, Day:7] ([2]; supplement, […], day 7): 0.002 mg/L; GFP Assay - 10pt DR: MIC90 [Media: 7H9 CAS GLU Tx, Day:7] ([2]; supplement, […], day 7): 0.015 mg/L; GFP Assay - 10pt DR: MIC90 [Media: 7H9 ADC GLU Tw, Day:14] ([2]; supplement, […], day 14): 0.001 mg/L; GFP Assay - 10pt DR: MIC90 [Media: 7H9 CAS GLU Tx, Day:14] ([2]; supplement, […], day 14): 0.035 mg/L"
CC/C(=C(\c1ccccc1)c1ccc(OCCN(C)C)cc1)c1ccccc1 [tamoxifen],,,,,,,,,,,,,,,,,,,IC50 at 24 h [7]: 22 µg/mL and 59.3 µM
